# Target: T1, α5-GABAA receptor (Homo sapiens, UniProt P18507+P31644)
# T1 construct: expressed in transfected cells; host or cells: HEK293, monoclonal stably transfected line
# Test: Cell-level screening: whole cell patch clamp, inverse agonist efficacy on α5-GABAA receptor expressed in HEK293
# Assay type: cell-based
# Conditions: drug 100 nM, GABA 0.05 μM, HEK293 expressing α5, β3 and γ2 subunits, clamped at −60 mV; read-out: Compound inverse agonist efficacy %
# Description: The inventors used electrophysiological methods to determine the inverse agonist efficacy of the drugs to be tested on the α5-GABAA receptor. The detailed methods are as follows:
# Different subunits of GABAA receptors were expressed in human […] cell line 293 (HEK293) cell line. The cells were cultured in a culture medium and used as a cell model for screening pain inhibiting drugs. The α, β and γ subunits are necessary to form complete functional GABAA receptors. In this embodiment, the inventors had established the following cell model: α5 subunit (see GenBank Accession No. NM_000810.3 for protein sequences), β3 subunit (see GenBank Accession No. NM_000814.5 for protein sequences) and γ2 subunit (see GenBank Accession No. NM_000816.3 for protein sequences) were expressed in HEK293 cell line at the same time, followed by screening the monoclonal cell line. This cell line contained α5-GABAA receptor and had complete GABAA receptor function.
# The monoclonal stably transfected HEK-293 cells expressing α5-GABAA receptor were cultured in 10 cm culture dishes and passaged when the cells grew to 80%-90%. During passaging, the culture medium was aspirated first, then 3 mL of DPBS phosphate buffer salt (Gibco™) was added to the culture dishes, and the culture dishes were shaken slightly, and DPBS was aspirated. 1 mL of trypsin (TrypLE Express, Gibco™) was added thereto, and the cells were digested at 37° C. for 1-2 minutes. Then 3 mL of complete medium (DMEM+10% FBS (Gibco™)) was added and the cells at the bottom of the culture dishes were dispersed. The cell suspension were transferred to a 15 mL centrifugal tube (Corning) and then centrifuged at 200 g for 3 minutes. The supernatant was discarded, 4 mL of complete medium was added, and the cells were gently blown and resuspended for use. If cell passaging was performed, the cell suspension was diluted at a ratio of 1:5 or 1:10. If cells for electrophysiology use were prepared, the cell suspension was diluted in a ratio of 1:12, then added into a 24-well dish (Corning™) in which glass slides were placed and pretreated with Poly-D-Lysine, and the cells were tested after being attached to the walls. The culture time of cells for electrophysiology use was no more than 48 hours.
# Drug concentration setting: the final drug concentration used in drug screening was 100 nM, and the GABA concentration range was 0.05 μM. The final drug concentrations used in the dose-inversal agonistic efficiency (%) test were 0.3 nM, 3 nM, 10 nM, 30 nM, 100 nM and 300 nM. The whole cell patch clamp technique was used in electrophysiological experiments, which could refer to the literature (I. Lecker, Y. Yin, D. S. Wang and B. A. Orser, (2013) Potentiation of GABAA receptor activity by volatile anaesthetics is reduced by α5-GABAA receptor-preferring inverse agonists, British Journal of Anaesthesia 110 (S1): i73-i81). The components of extracellular solution (ECS) for electrophysiology use were as follows: 150 mM NaCl, 5 mM KCl, 2.5 mM CaCl2), 1 mM MgCl2, 10 mM HEPES and 10 mM glucose (pH 7.4); electrode internal solutions for electrophysiology use were as follows: 140 mM CsCl, 11 mM EGTA, 10 mM HEPES, 2 mM CaCl2), 1 mM MgCl2, 4 mM MgATP, 2 mM TEA (pH 7.3). The signal acquisition used an EPC-10 amplifier and the PatchMaster software (HEKA). The recording electrode was drawn using borosilicate glass, and the electrode resistance was 4 to 6 MΩ. The ALA-VC3-8PP™ system was used for extracellular administration. Separate cells that grew independently was selected for recording. During recording, the cell membrane potential was clamped at −60 mV. During experiment, an extracellular solution was applied to the cells for about 20 seconds. When the baseline reached to a stable state, the extracellular solution was switched to GABA. Then the current induced by GABA could be detected. […]
# T1 sequence (P31644 32-462): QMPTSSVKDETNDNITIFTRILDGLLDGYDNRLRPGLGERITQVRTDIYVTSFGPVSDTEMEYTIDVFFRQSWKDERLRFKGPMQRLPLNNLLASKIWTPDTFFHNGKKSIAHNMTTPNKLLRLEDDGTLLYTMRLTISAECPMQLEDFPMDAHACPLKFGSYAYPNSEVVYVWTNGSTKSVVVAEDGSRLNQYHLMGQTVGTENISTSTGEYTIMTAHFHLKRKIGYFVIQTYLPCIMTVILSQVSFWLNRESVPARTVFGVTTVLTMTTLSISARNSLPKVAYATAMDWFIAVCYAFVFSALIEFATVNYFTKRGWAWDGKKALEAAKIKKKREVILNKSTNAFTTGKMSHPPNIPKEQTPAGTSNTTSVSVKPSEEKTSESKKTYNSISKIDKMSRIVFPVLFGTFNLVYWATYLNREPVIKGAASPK
# T1 sequence (P28472 26-473 partner): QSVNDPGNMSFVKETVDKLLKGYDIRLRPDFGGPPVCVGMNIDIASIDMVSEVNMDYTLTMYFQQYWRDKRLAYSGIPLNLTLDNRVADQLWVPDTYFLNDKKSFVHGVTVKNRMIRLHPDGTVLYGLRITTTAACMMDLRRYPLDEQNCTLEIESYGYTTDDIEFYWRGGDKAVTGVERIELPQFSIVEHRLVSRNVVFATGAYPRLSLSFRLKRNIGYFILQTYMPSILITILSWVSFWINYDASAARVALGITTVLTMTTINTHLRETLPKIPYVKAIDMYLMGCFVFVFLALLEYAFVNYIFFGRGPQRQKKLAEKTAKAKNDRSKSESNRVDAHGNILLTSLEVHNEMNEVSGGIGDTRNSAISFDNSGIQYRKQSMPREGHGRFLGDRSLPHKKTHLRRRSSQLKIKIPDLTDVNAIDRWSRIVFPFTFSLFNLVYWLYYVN
# T1 sequence (P18507 40-467 isoform P18507-1 limits assumed): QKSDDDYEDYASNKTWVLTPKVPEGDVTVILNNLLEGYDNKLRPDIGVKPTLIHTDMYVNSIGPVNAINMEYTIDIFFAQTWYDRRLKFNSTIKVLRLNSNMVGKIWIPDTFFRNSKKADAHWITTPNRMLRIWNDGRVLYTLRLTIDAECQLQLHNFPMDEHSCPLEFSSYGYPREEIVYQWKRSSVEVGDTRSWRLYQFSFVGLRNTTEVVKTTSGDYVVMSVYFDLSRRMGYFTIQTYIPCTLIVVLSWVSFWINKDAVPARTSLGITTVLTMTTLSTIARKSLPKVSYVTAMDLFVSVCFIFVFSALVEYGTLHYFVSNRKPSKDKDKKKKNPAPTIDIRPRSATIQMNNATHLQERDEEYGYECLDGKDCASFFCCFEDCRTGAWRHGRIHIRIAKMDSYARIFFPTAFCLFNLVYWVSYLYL
row,Structure (SMILES),inhibition at 0.1 µM [%]
1,COc1cc2nnc(-c3cc(C)on3)n2nc1OCc1cccc(Cl)n1 [Embodiment 18],23
2,COc1cc2nnc(-c3cc(C)on3)n2nc1OCc1ccc(OC(C)C)cn1 [Embodiment 25],34.1
3,"COCc1cc(-c2nnc3cc(OC)c(OCc4ccc(OC)cn4)nn23)no1 [Embodiment 48, 3-(7-Methoxy-6-((5-methoxypyridin-2-yl)methoxy)-[1,2,4]triazolo[4,3-b]pyridazine-3-yl)-5-(methoxymethyl)isoxazole]",34.7
4,COc1cc2nnc(-c3cc(C)on3)n2nc1OCc1ccc(OCCN2CCC2)cn1 [Embodiment 133],36.9
5,COc1cc2nnc(-c3cc(C)on3)n2nc1OCc1ccc(C)cn1 [Embodiment 42],44.9
6,CCOc1ccc(COc2nn3c(-c4cc(C)on4)nnc3cc2OC)nc1 [Embodiment 23],41.2
7,COc1cc2nnc(-c3cc(C)on3)n2nc1OCc1cccc2cnnn12 [Embodiment 104],48.2
8,COc1ccc(C(F)(F)F)nc1COc1nn2c(-c3cc(C)on3)nnc2cc1OC [Embodiment 62],35.7
9,COc1cc2nnc(-c3cc(C)on3)n2nc1OCc1cc2c(cn1)OCCO2 [Embodiment 121],37.4
10,COCCOc1ccnc(COc2nn3c(-c4cc(C)on4)nnc3cc2OC)c1 [Embodiment 10],37.1
11,Cc1cc(-c2nnc3cc(OCC4CC4)c(OCc4ccccn4)nn23)no1 [Embodiment 14],19.4
12,COc1cc2nnc(-c3cc(C)on3)n2nc1OCc1cccc(C2CC2)n1 [Embodiment 57],17.6
13,COc1cc2nnc(-c3cc(C)on3)n2nc1OCc1ccc(C2(F)CCCNC2)cn1 (centres unmarked) [Embodiment 95],48.1
14,COc1cc2nnc(-c3cc(C)on3)n2nc1OCc1ccccc1C#N [Embodiment 5],31.5
15,CCn1cccc(COc2nn3c(-c4cc(C)on4)nnc3cc2OC)c1=O [Embodiment 76],41.6
16,"COc1cc2nnc(-c3cc(C)on3)n2nc1OCc1ccc2c(n1)CCN(c1ccccc1)C2 [Embodiment 87, 3-(7-Methoxy-6-((6-phenyl-5,6,7,8-tetrahydro-1,6-naphthalen-2-yl)methoxy)-[1,2,4]triazolo[4,3-b]pyridazin-3-yl)-5-methylisoxazole]",39.7
17,COc1ccc(COc2nn3c(-c4cc(C)on4)nnc3cc2OC)nc1 [Embodiment 37],42.1
18,COc1cc2nnc(-c3cc(C)on3)n2nc1OCc1ccc(OCCCC#N)cn1 [Embodiment 8],57.8
19,COc1cc2nnc(-c3cc(C)on3)n2nc1OCc1ccc2ccn(C)c2n1 [Embodiment 94],32.9
20,CCOc1cccc(COc2nn3c(-c4cc(C)on4)nnc3cc2OC)n1 [Embodiment 22],22.1
21,COc1cc2nnc(-c3cc(C)on3)n2nc1OCc1ccc(S(C)(=O)=O)cn1 [Embodiment 53],48.8
22,COc1cc2nnc(-c3cc(C)on3)n2nc1OCc1ccc2c(ccn2C)n1 [Embodiment 97],32.6
23,COc1cc2nnc(-c3cc(C)on3)n2nc1OCc1ccc2c(n1)CCN(C(C)C)C2 [Embodiment 83],39.9
24,COc1cc2nnc(-c3cc(C)on3)n2nc1OCc1ccc2ncn(C)c2n1 [Embodiment 101],32.9
25,COc1cc2nnc(-c3cc(C)on3)n2nc1OCc1ccc(C2CC2)cn1 [Embodiment 34],38
26,COc1cc2nnc(-c3cc(C)on3)n2nc1OCc1ccc(OC(F)F)cn1 [Embodiment 24],35
27,"CCNC(=O)c1ccc(COc2nn3c(-c4cc(C)on4)nnc3cc2OCC)nc1 [Embodiment 12, 6-(((7-Ethoxy-3-(5-methylisoxazol-3-yl)-[1,2,4]triazolo[4,3-b]pyridazin-6-yl)oxy)methyl)-N-ethylnicotinamide]",29.6
28,COc1cnc(COc2nn3c(-c4cc(C)on4)nnc3cc2OC)cn1 [Embodiment 44],44.8

# Further lines, results first:
row,inhibition at 0.1 µM [%],Structure (SMILES)
1,49,COCCCn1ccc2nc(COc3nn4c(-c5cc(C)on5)nnc4cc3OC)ccc2c1=O [Embodiment 139]
2,50.5,CCn1nc(C)c2nc(COc3nn4c(-c5cc(C)on5)nnc4cc3OC)ccc21 [Embodiment 243]
3,69.6,CCn1ccc2nc(COc3nn4c(-c5cc(C)on5)nnc4cc3OC)ccc2c1=O [Embodiment 148]
4,40.2,"COc1cc2nnc(-c3cc(C)on3)n2nc1OCc1ccc2c(n1)CN(CCC#N)C2 [Embodiment 256, 3-(2-(((7-Methoxy-3-(5-methylisoxazol-3-yl)-[1,2,4]triazolo[4,3-b]pyridazin-6-yl)oxy)methyl)-5,7-dihydro-6H-pyrrolo[3,4-b]pyridin-6-yl)propanenitrile]"
5,51.8,COc1cc2nnc(-c3cc(C)on3)n2nc1OCc1ccc2cnn(C)c2n1 [Embodiment 220]
6,53.8,"COc1cc2nnc(-c3cc(C)on3)n2nc1OCc1ccc2c(n1)CCN([C@@H]1CCOC1)C2 (single isomer, unassigned) [Embodiment 182]"
7,45.4,COc1cc2nnc(-c3cc(C)on3)n2nc1OCc1ccc2c(n1)CN(C1COC1)C2 [Embodiment 255]
8,33.4,COCCOc1nccc2nc(COc3nn4c(-c5cc(C)on5)nnc4cc3OC)ccc12 [Embodiment 146]
9,50.1,CCc1cn2nc(COc3nn4c(-c5cc(C)on5)nnc4cc3OC)ccc2n1 [Embodiment 176]
10,39.8,COCCn1ccc2nc(COc3nn4c(-c5cc(C)on5)nnc4cc3OC)ccc2c1=O [Embodiment 147]
11,36,COc1cc2nnc(-c3cc(C)on3)n2nc1OCc1ccc(OC2COC2)cn1 [Embodiment 175]
12,48.8,COc1cc2nnc(-c3cc(C)on3)n2nc1OCc1ccc2c(n1)CCN(S(C)(=O)=O)C2 [Embodiment 209]
13,57.2,"COc1cc2nnc(-c3cc(C)on3)n2nc1OCc1ccc2nn(CCc3ccccc3)cc2n1 [Embodiment 230, 3-(7-Methoxy-6-(((2-phenethyl-2H-pyrazolo[4,3-b]pyridin-5-yl]methoxy])-[1,2,4]triazolo[4,3-b]pyridazin-3-yl)-5-methylisoxazole]"
14,39,COc1cc2nnc(-c3cc(C)on3)n2nc1OCc1ccc2c(n1)CN(C1CCOC1)C2 (centres unmarked) [Embodiment 254]
15,48.3,"COc1cc2nnc(-c3cc(C)on3)n2nc1OCc1ccc2c(n1)CCN(C(=O)NC1CC(F)(F)C1)C2 [Embodiment 201, N-(3,3-Difluorocyclobutyl)-2-(((7-methoxy-3-(5-methylisoxazol-3-yl)-[1,2,4]triazolo[4,3-b]pyridazin-6-yl)oxy)methyl)-7,8-dihydro-1,6-naphthyridine-6(5H)-carboxamide]"
16,52.4,COc1cc2nnc(-c3cc(C)on3)n2nc1OCc1ccc2c(n1)CCN(Cc1nnc(C)o1)C2 [Embodiment 188]
17,50,COc1cc2nnc(-c3cc(C)on3)n2nc1OCc1ccc2c(n1)CN(CCCC#N)C2 [Embodiment 257]
18,53.1,COc1cc2nnc(-c3cc(C)on3)n2nc1OCc1ccc(OCC2CCOCC2)nn1 [Embodiment 171]
19,45.9,"COc1cc2nnc(-c3cc(C)on3)n2nc1OCc1ccc2nn(C3COC3)cc2n1 [Embodiment 226, 3-(7-Methoxy-6-((2-(oxetan-3-yl)-2H-pyrazolo[4,3-b]pyridin-5-yl)methoxy)-[1,2,4]triazolo[4,3-b]pyridazin-3-yl)-5-methylisoxazole]"

# From patent US12637468B2, “Substituted [1,2,4]triazolo[4,3-b]pyridazines as GABAA receptor modulators” (SHANGHAI SIMR BIOTECHNOLOGY CO., LTD., priority 2019, dated 2026)
